Results reported in article PMC7407158, “Reprogramming of the Antibacterial Drug Vancomycin Results in Potent Antiviral Agents Devoid of Antibacterial Activity” (Pharmaceuticals, 2020).
pEC50: −log10 of the molar value. ≈ marks a conversion by molar mass, not a printed value. Read-outs that look alike come from different tables or passages of the source.

Tests used:
[1] = test system: S. aureus MRSA ATCC 33591; assay: Broth microdilution MIC, S. aureus MRSA ATCC 33591; format: cell-based; conditions: for MIC: Staphylococcus aureus, read-out: In Vitro MIC
Protocol: (§1) Antibacterial tests were carried out by the broth microdilution method on a panel of eight Gram-positive bacterial strains, using vancomycin and teicoplanin as reference compounds.

[2] = test system: HEL, human embryonic lung fibroblast cells; conditions: read-out: CC50 HEL; mock-infected HEL cells, MTS assay
[3] = test system: HeLa, human cervix carcinoma cells; conditions: read-out: CC50 HeLa; mock-infected HeLa cells, MTS assay
E. faecalis ATCC 29212 = assay: Broth microdilution MIC, E. faecalis ATCC 29212; format: cell-based; conditions: for MIC: Enterococcus faecalis
Protocol: as §1

B. subtilis ATCC 6633 = assay: Broth microdilution MIC, B. subtilis ATCC 6633; format: cell-based; conditions: for MIC: Bacillus subtilis
Protocol: as §1

influenza A or B viruses = assay: Anti-influenza virus activity in MDCK cells, MTS assay, overall for the three influenza A or B viruses; format: cell-based, Influenza A and B viruses
S. epidermidis mecA = assay: Broth microdilution MIC, S. epidermidis mecA; format: cell-based; conditions: for MIC: Staphylococcus epidermidis, read-out: In Vitro MIC
Protocol: as §1

[4] = test system: E. faecalis ATCC 51,299 VanB; assay: Broth microdilution MIC, E. faecalis ATCC 51,299 VanB; format: cell-based; conditions: for MIC: Enterococcus faecalis, ATCC51, read-out: In Vitro MIC
Protocol: as §1

MDCK cells = conditions: read-out: CC50 (50% cytotoxic concentration), mock-infected, MTS cell viability assay, three days
[5] = test system: S. epidermidis ATCC 35984; assay: Broth microdilution MIC, S. epidermidis ATCC 35984; format: cell-based; conditions: for MIC: Staphylococcus epidermidis
Protocol: as §1

[6] = test system: Vero, African Green monkey kidney cells; conditions: read-out: CC50 Vero; mock-infected Vero cells, MTS assay
E. faecalis 15,376 VanA = assay: Broth microdilution MIC, E. faecalis 15,376 VanA; format: cell-based; conditions: for MIC: Enterococcus faecalis, read-out: In Vitro MIC
Protocol: as §1

[7] = test system: S. aureus MSSA ATCC 29213; assay: Broth microdilution MIC, S. aureus MSSA ATCC 29213; format: cell-based; conditions: for MIC: Staphylococcus aureus, read-out: In Vitro MIC
Protocol: as §1

A/PR/8/34 virus = format: cell-based, Influenza A virus
[8] = test system: vaccinia virus (strain Lederle); assay: microbe, parasite or virus in culture; format: cell-based; conditions: Orthopoxvirus vaccinia, HEL, read-out: Antiviral EC50 Vaccinia Virus
[9] = test system: herpes simplex virus type 1 (HSV-1 strain KOS); assay: CPE reduction, MTS assay, HSV-1 in HEL cells; format: cell-based; conditions: Human alphaherpesvirus 1, protection against virus-induced CPE, read-out: Antiviral EC50 HSV-1
in vitro [10] = conditions: human
in vitro [11] = conditions: human; remark: listed apart in the source
in vitro [12] = conditions: African green monkey
[13] = test system: herpes simplex virus type 2 (HSV-2, strain G); assay: CPE reduction, MTS assay, HSV-2 in HEL cells; format: cell-based; conditions: Human alphaherpesvirus 2, protection against virus-induced CPE, read-out: Antiviral EC50 HSV-2
[14] = test system: thymidine kinase deficient HSV-1/TK- mutant; assay: microbe, parasite or virus in culture; format: cell-based, herpes simplex virus type 1; conditions: Human alphaherpesvirus 1, HEL, read-out: Antiviral EC50 HSV-1/TK-
[15] = test system: Influenza A/H1N1 (A/Ned/378/05); assay: Influenza CPE reduction in MDCK cells, MTS assay, A/H1N1; format: cell-based; conditions: Influenza A virus, H1N1; MDCK cells; A/Ned/378/05; inhibition of virus-induced CPE by MTS assay; read-out: Antiviral EC50 Influenza A/H1N1
in vitro [16] = conditions: dog
[17] = test system: Influenza B (B/Ned/537/05); assay: Influenza CPE reduction in MDCK cells, MTS assay, influenza B; format: cell-based; conditions: Influenza B virus, inhibition of virus-induced CPE by MTS assay, read-out: Antiviral EC50 Influenza B
[18] = test system: Influenza A/H3N2 (A/Victoria/361/11); assay: Influenza CPE reduction in MDCK cells, MTS assay, A/H3N2; format: cell-based; conditions: Influenza A virus, H3N2; MDCK cells; A/Victoria/361/11; inhibition of virus-induced CPE by MTS assay; read-out: Antiviral EC50 Influenza A/H3N2
[19] = S. aureus MSSA ATCC 29213, broth microdilution
[20] = ATCC29212, read-out: In Vitro MIC
[21] = ATCC6633, read-out: In Vitro MIC
[22] = ATCC35984, read-out: In Vitro MIC

CCCCSC1=C(SCCCC)C(=O)N(CCOCCOCCOCCOCc2cn(C3C(=O)NC(CC(N)=O)C(=O)NC4C(=O)NC5C(=O)NC(C(=O)NC(C(=O)O)c6cc(O)cc(O)c6-c6cc5ccc6O)C(O)c5ccc(c(Cl)c5)Oc5cc4cc(c5O)Oc4ccc(cc4Cl)C3O)nn2)C1=O (stereo not drawn) [Compound 7]
MIC [1]: 256 µg/mL (≈ 167 µM)
CC50 [2]: > 100 µM
CC50 [3]: > 100 µM
MIC (E. faecalis ATCC 29212; ATCC29212, E. faecalis ATCC 29212, broth microdilution, read-out: In Vitro MIC): 32 µg/mL (≈ 20.9 µM)
MIC (B. subtilis ATCC 6633; ATCC6633, B. subtilis ATCC 6633, broth microdilution, read-out: In Vitro MIC): 32 µg/mL (≈ 20.9 µM)
anti-influenza virus activity (in words) (influenza A or B viruses): robust activity
MIC (S. epidermidis mecA): 32 µg/mL (≈ 20.9 µM)
MIC [4]: 256 µg/mL (≈ 167 µM)
CC50 (MDCK cells): 18 µM
MIC ([5]; ATCC35984, S. epidermidis ATCC 35984, broth microdilution, read-out: In Vitro MIC): 32 µg/mL (≈ 20.9 µM)
CC50 [6]: > 100 µM
MIC (E. faecalis 15,376 VanA): 256 µg/mL (≈ 167 µM)
MIC [7, 19]: 256 µg/mL (≈ 167 µM)
virus-induced cytopathic effect (CPE) upon microscopic inspection (A/PR/8/34 virus): no virus-induced cytopathic effect (CPE) was observed

Nc1nc(O)c2ncn(COC(CO)CO)c2n1 [Ganciclovir]
pEC50 [8]: < 4.00
pEC50 [9]: 7.00
CC50 (in vitro [10]): > 100 µM
CC50 (in vitro [11]): > 100 µM
CC50 (in vitro [12]): > 100 µM
pEC50 [13]: 7.52

CCCCCCCCCCOCc1cn(CCOCCOCCOCCOCc2cn(CCNC(=O)[C@H]3NC(=O)[C@H]4NC(=O)[C@H](NC(=O)[C@@H]5NC(=O)[C@H](CC(N)=O)NC(=O)[C@H](N)[C@H](O)c6ccc(c(Cl)c6)Oc6cc5cc(c6O)Oc5ccc(cc5Cl)[C@H]4O)c4ccc(O)c(c4)-c4c(O)cc(O)cc43)nn2)nn1 [Compound 11]
MIC [1]: 256 µg/mL (≈ 166 µM)
MIC (E. faecalis ATCC 29212; [20]): 128 µg/mL (≈ 83.2 µM)
MIC (B. subtilis ATCC 6633; [21]): 32 µg/mL (≈ 20.8 µM)
MIC (S. epidermidis mecA): 256 µg/mL (≈ 166 µM)
MIC [4]: 256 µg/mL (≈ 166 µM)
CC50 (MDCK cells): ≥ 20 µM
MIC [5, 22]: 256 µg/mL (≈ 166 µM)
MIC (E. faecalis 15,376 VanA): 256 µg/mL (≈ 166 µM)
MIC [7]: 256 µg/mL (≈ 166 µM)

CN[C@H](CC(C)C)C(=O)N[C@H]1C(=O)N[C@@H](CC(N)=O)C(=O)N[C@H]2C(=O)N[C@H]3C(=O)N[C@H](C(=O)N[C@H](C(=O)O)c4cc(O)cc(O)c4-c4cc3ccc4O)[C@H](O)c3ccc(c(Cl)c3)Oc3cc2cc(c3O[C@@H]2O[C@H](CO)[C@@H](O)[C@H](O)[C@H]2O[C@H]2C[C@](C)(N)[C@H](O)[C@H](C)O2)Oc2ccc(cc2Cl)[C@H]1O [VAN, vancomycin]
MIC [1]: 0.5 µg/mL (≈ 0.345 µM)
MIC (E. faecalis ATCC 29212; [20]): 1 µg/mL (≈ 0.69 µM)
MIC (B. subtilis ATCC 6633; [21]): 0.5 µg/mL (≈ 0.345 µM)
MIC (S. epidermidis mecA): 4 µg/mL (≈ 2.76 µM)
MIC [4]: 128 µg/mL (≈ 88.3 µM)
MIC [5, 22]: 2 µg/mL (≈ 1.38 µM)
MIC (E. faecalis 15,376 VanA): 256 µg/mL (≈ 177 µM)
MIC [7]: 0.5 µg/mL (≈ 0.345 µM)

Nc1ccn(C[C@@H](CO)OCP(=O)(O)O)c(=O)n1 [Cidofovir]
pEC50 [8]: 4.43
pEC50 [14]: 5.24
pEC50 [9]: 5.62
CC50 (in vitro [10]): > 250 µM
CC50 (in vitro [11]): > 250 µM
CC50 (in vitro [12]): > 250 µM
pEC50 [13]: 6.00

Nc1nc2c(ncn2COCCO)c(=O)[nH]1 [Aciclovir]
pEC50 [8]: < 3.60
pEC50 [14]: 3.84
pEC50 [9]: 5.62
CC50 (in vitro [10]): > 250 µM
CC50 (in vitro [11]): > 250 µM
CC50 (in vitro [12]): > 250 µM
pEC50 [13]: 7.30

teicoplanin [reference compound]
In Vitro MIC ([1]; S. aureus MRSA ATCC 33591, broth microdilution): 0.5 µg/mL
In Vitro MIC (E. faecalis ATCC 29212; E. faecalis ATCC 29212, broth microdilution): 1 µg/mL
In Vitro MIC (B. subtilis ATCC 6633; B. subtilis ATCC 6633, broth microdilution): 0.5 µg/mL
In Vitro MIC (S. epidermidis mecA; S. epidermidis mecA, broth microdilution): 16 µg/mL
In Vitro MIC ([4]; E. faecalis ATCC 51,299 VanB, broth microdilution): 0.5 µg/mL
In Vitro MIC ([5]; S. epidermidis ATCC 35984, broth microdilution): 4 µg/mL
In Vitro MIC (E. faecalis 15,376 VanA; E. faecalis 15,376 VanA, broth microdilution): 256 µg/mL
In Vitro MIC [7, 19]: 0.5 µg/mL

CCCCCCS(=O)(=O)NC1C(=O)NC(CC(N)=O)C(=O)NC2C(=O)NC3C(=O)NC(C(=O)NC(C(=O)O)c4cc(O)cc(O)c4-c4cc3ccc4O)C(O)c3ccc(c(Cl)c3)Oc3cc2cc(c3O)Oc2ccc(cc2Cl)C1O (stereo not drawn) [Compound 8]
MIC [1]: 256 µg/mL (≈ 220 µM)
pEC50 [15]: < 4.00
MIC (E. faecalis ATCC 29212; [20]): 32 µg/mL (≈ 27.5 µM)
MIC (B. subtilis ATCC 6633; [21]): 32 µg/mL (≈ 27.5 µM)
anti-influenza virus activity (in words) (influenza A or B viruses): inactive
CC50 (in vitro [16]): 100 µM
MIC (S. epidermidis mecA): 64 µg/mL (≈ 54.9 µM)
MIC [4]: 128 µg/mL (≈ 110 µM)
MIC [5, 22]: 32 µg/mL (≈ 27.5 µM)
MIC (E. faecalis 15,376 VanA): 256 µg/mL (≈ 220 µM)
MIC [7]: 256 µg/mL (≈ 220 µM)
pEC50 [17]: < 4.00
pEC50 [18]: < 4.00

CC(=O)N[C@H]1[C@H]([C@H](O)[C@H](O)CO)OC(C(=O)O)=C[C@@H]1N=C(N)N [Zanamivir, reference compound]
pEC50 [15]: 6.40
CC50 (in vitro [16]): > 100 µM
pEC50 [17]: 5.35
pEC50 [18]: 5.05

CCCCSC1=C(SCCCC)C(=O)N(CCOCCOCCOCCOCc2cn(CCNC(=O)[C@H]3NC(=O)[C@H]4NC(=O)[C@H](NC(=O)[C@@H]5NC(=O)[C@H](CC(N)=O)NC(=O)[C@H](N)[C@H](O)c6ccc(c(Cl)c6)Oc6cc5cc(c6O)Oc5ccc(cc5Cl)[C@H]4O)c4ccc(O)c(c4)-c4c(O)cc(O)cc43)nn2)C1=O [Compound 12]
MIC [1]: 256 µg/mL (≈ 163 µM)
MIC (E. faecalis ATCC 29212; [20]): 128 µg/mL (≈ 81.4 µM)
MIC (B. subtilis ATCC 6633; [21]): 256 µg/mL (≈ 163 µM)
anti-influenza virus activity (in words) (influenza A or B viruses): only slightly active
MIC (S. epidermidis mecA): 256 µg/mL (≈ 163 µM)
MIC [4]: 256 µg/mL (≈ 163 µM)
CC50 (MDCK cells): 100 µM
MIC [5, 22]: 128 µg/mL (≈ 81.4 µM)
MIC (E. faecalis 15,376 VanA): 256 µg/mL (≈ 163 µM)
MIC [7]: 256 µg/mL (≈ 163 µM)

CCCCCCS(=O)(=O)NCCNC(=O)[C@H]1NC(=O)[C@H]2NC(=O)[C@H](NC(=O)[C@@H]3NC(=O)[C@H](CC(N)=O)NC(=O)[C@H](N)[C@H](O)c4ccc(c(Cl)c4)Oc4cc3cc(c4O)Oc3ccc(cc3Cl)[C@H]2O)c2ccc(O)c(c2)-c2c(O)cc(O)cc21 [Compound 13]
MIC [1]: 256 µg/mL (≈ 212 µM)
pEC50 [15]: 4.47
MIC (E. faecalis ATCC 29212; [20]): 64 µg/mL (≈ 53 µM)
MIC (B. subtilis ATCC 6633; [21]): 256 µg/mL (≈ 212 µM)
anti-influenza virus activity (in words) (influenza A or B viruses): only slightly active
CC50 (in vitro [16]): > 100 µM
MIC (S. epidermidis mecA): 128 µg/mL (≈ 106 µM)
MIC [4]: 128 µg/mL (≈ 106 µM)
MIC [5, 22]: 128 µg/mL (≈ 106 µM)
MIC (E. faecalis 15,376 VanA): 256 µg/mL (≈ 212 µM)
MIC [7]: 256 µg/mL (≈ 212 µM)
pEC50 [17]: < 4.00
pEC50 [18]: 4.85
